The values below come from ChEMBL document CHEMBL4219024, “A "Click Chemistry Platform" for the Rapid Synthesis of Bispecific Molecules for Inducing Protein Degradation” (J Med Chem, 2018).

Data set [1] has as its target T1, Protein cereblon/Bromodomain-containing protein 4/DNA damage-binding protein 1 (Homo sapiens, UniProt O60885+Q96SW2+Q16531). In words: Induction of CRBN/DDB1-mediated BRD4 protein degradation in human NCI-H661 cells assessed as drug level causing 50% cellular protein depletion incubated for 4 hrs by MSD assay.
A short description of data set [2]: Solubility of the compound in PBS.
Data set [3] in a line: Solubility of the compound in 0.01 N HCl.
A short description of another data set: physchem. The note with it: fasted state simulated intestinal fluid.
Data set [4] addresses T1, Protein cereblon/Bromodomain-containing protein 4/DNA damage-binding protein 1. In words: Proteolysis targeting chimera activity in human NCI-H661 cells assessed as induction of CRBN/DDB1-mediated delivery of BRD4 for protein degradation by proteasome at 10 uM after 4 hrs by Meso Scale Diagnostics assay. In kind it is cell-based.
Data set [5] addresses T2, von Hippel-Lindau disease tumor suppressor/Bromodomain-containing protein 4 (Homo sapiens) (UniProt O60885+P40337). In words: Induction of human His-tagged VHL(1 to 154)/GST-tagged BRD4 (49 to 170 residues) interaction assessed as VHL/BRD4/compound complex formation preincubated for 60 mins and measured after 60 mins by luminescence based Alphascreen proximity assay relative to control. The class given is protein assay.

In data set [6] the target is T2, von Hippel-Lindau disease tumor suppressor/Bromodomain-containing protein 4 (Homo sapiens). In words: Proteolysis targeting chimera activity in human NCI-H661 cells assessed as induction of VHL-mediated delivery of BRD4 for protein degradation by proteasome after 4 hrs in presence of 2-(prop-2-ynyloxy)ethanol by Meso Scale Diagnostics assay. The class given is cell-based.

The target of data set [7] is T1, Protein cereblon/Bromodomain-containing protein 4/DNA damage-binding protein 1. In words: Proteolysis targeting chimera activity in human NCI-H661 cells assessed as induction of CRBN/DDB1-mediated delivery of BRD4 for protein degradation at 1 uM after 4 hrs by Meso Scale Diagnostics assay. In kind it is cell-based.
Data set [8] shares this target. In words: Proteolysis targeting chimera activity in human NCI-H661 cells assessed as induction of CRBN/DDB1-mediated delivery of BRD4 for protein degradation by proteasome at 1 uM after 4 hrs in presence of 10 uM of JQ-1 by Meso Scale Diagnostics assay. In kind it is cell-based.
The target is the same in data set [9]. In words: Proteolysis targeting chimera activity in human NCI-H661 cells assessed as induction of CRBN/DDB1-mediated delivery of BRD4 for protein degradation by proteasome at 1 uM after 4 hrs in presence of 10 uM thalidomide by Meso Scale Diagnostics assay. The class given is cell-based.
Data set [10] shares this target. In words: Proteolysis targeting chimera activity in human NCI-H661 cells assessed as induction of CRBN/DDB1-mediated delivery of BRD4 for protein degradation by proteasome at 1 uM after 4 hrs in presence of 20 uM MG132 by Meso Scale Diagnostics assay. The class given is cell-based.

Broadly, the DC50 is the midpoint of the concentration-degradation curve. In general, solubility refers to the concentration that dissolves in the medium under given conditions.

Values after ≈ are worked out from the molar mass of the structure shown. Active and inactive are the calls of the source. The calls are words filed in the database; no cut-off is given here.

T2 sequence (P40337 whole entry, looked up, other chains not shown, the tested form may be a part): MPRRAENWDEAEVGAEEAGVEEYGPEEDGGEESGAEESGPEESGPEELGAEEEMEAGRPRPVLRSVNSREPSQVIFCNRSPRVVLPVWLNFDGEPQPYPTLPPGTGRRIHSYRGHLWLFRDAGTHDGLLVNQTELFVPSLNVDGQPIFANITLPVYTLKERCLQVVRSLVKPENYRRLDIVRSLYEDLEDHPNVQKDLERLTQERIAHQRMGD

For the compound `Cc1sc2c(c1C)C(c1ccc(Cl)cc1)=N[C@@H](CC(=O)NCCn1cc(COCCOCCOc3cccc4c3C(=O)N(C3CCC(=O)NC3=O)C4=O)nn1)c1nnc(C)n1-2` (stereo partly specified), the DC50 in data set [1] was above 5000 nM. Further, the solubility in data set [2] is 76 µM (≈ 66.1 µg/mL); in [3] (0.01 N HCl) it was 237 µM (≈ 206 µg/mL); in the data set “physchem”, 237 µM (≈ 206 µg/mL).

As to `C#CCOCCOCCOCCOCCOc1cccc2c1C(=O)N(C1CCC(=O)NC1=O)C2=O` (stereo unspecified), the result in [4] was inactive.

For the compound `Cc1sc2c(c1C)C(c1ccc(Cl)cc1)=N[C@@H](CC(=O)NCCN=[N+]=[N-])c1nnc(C)n1-2`, in data set [4], the outcome was inactive.

On to `Cc1ncsc1-c1ccc(CNC(=O)[C@@H]2C[C@@H](O)CN2C(=O)[C@@H](NC(=O)COCCOCCOCCOCc2cn(CCNC(=O)C[C@@H]3N=C(c4ccc(Cl)cc4)c4c(sc(C)c4C)-n4c(C)nnc43)nn2)C(C)(C)C)cc1`, for which, in data set [1], the DC50 was found to be 460 nM. The results for the solubility (in data set [2]; in [3] (0.01 N HCl); in the data set “physchem”) were 168 µM (≈ 189 µg/mL), 394 µM (≈ 444 µg/mL) and 294 µM (≈ 332 µg/mL), respectively. In addition, the %max in data set [5] was determined as 15%.

With `Cc1ncsc1-c1ccc(CNC(=O)[C@@H]2C[C@@H](O)CN2C(=O)[C@@H](NC(=O)COCCOCCOCCNC(=O)C[C@@H]2N=C(c3ccc(Cl)cc3)c3c(sc(C)c3C)-n3c(C)nnc32)C(C)(C)C)cc1`, the solubility in data set [2] is 97 µM (≈ 97.3 µg/mL); in data set [3] (buffer) it was 450 µM (≈ 451 µg/mL); in the data set “physchem”, 164 µM (≈ 164 µg/mL). The %max in data set [5] is 100%.

As to `Cc1ncsc1-c1ccc(CNC(=O)[C@@H]2C[C@@H](O)CN2C(=O)[C@@H](NC(=O)COCCOCCOCc2cn(CCNC(=O)C[C@@H]3N=C(c4ccc(Cl)cc4)c4c(sc(C)c4C)-n4c(C)nnc43)nn2)C(C)(C)C)cc1`, the DC50 in data set [1] is 240 nM. The figures for the solubility (in [2]; in data set [3] (0.01 N HCl); in “physchem”) were 71 µM (≈ 76.9 µg/mL), 293 µM (≈ 318 µg/mL) and 183 µM (≈ 198 µg/mL), respectively. Moreover, the %max in data set [5] turned out to be 11%.

Take `Cc1sc2c(c1C)C(c1ccc(Cl)cc1)=N[C@@H](CC(=O)NCCn1cc(COc3cccc4c3C(=O)N(C3CCC(=O)NC3=O)C4=O)nn1)c1nnc(C)n1-2` (stereo partly specified): the solubility in [2] was 31 µM (≈ 24.2 µg/mL); in [3] (0.01 N HCl), 171 µM (≈ 134 µg/mL); in “physchem” it was 191 µM (≈ 149 µg/mL).

In the case of `Cc1sc2c(c1C)C(c1ccc(Cl)cc1)=N[C@@H](CC(=O)NCCn1cc(COCCOCCOCCOc3cccc4c3C(=O)N(C3CCC(=O)NC3=O)C4=O)nn1)c1nnc(C)n1-2` (stereo partly specified), the solubility was 130 µM (≈ 119 µg/mL) in [2], 310 µM (≈ 283 µg/mL) in [3] (0.01 N HCl) and 216 µM (≈ 197 µg/mL) in the data set “physchem”.

`Cc1ncsc1-c1ccc(CNC(=O)[C@@H]2C[C@@H](O)CN2C(=O)[C@@H](NC(=O)COCCOCCOCCOCCOCc2cn(CCNC(=O)C[C@@H]3N=C(c4ccc(Cl)cc4)c4c(sc(C)c4C)-n4c(C)nnc43)nn2)C(C)(C)C)cc1`: the DC50 in [1] was 630 nM. For the same compound, the solubility in data set [2] is 206 µM (≈ 241 µg/mL); in [3] (0.01 N HCl) it was 500 µM (≈ 586 µg/mL); in “physchem” it was 313 µM (≈ 367 µg/mL). Further, the %max in data set [5] stood at 3%.

Consider `Cc1ncsc1-c1ccc(CNC(=O)[C@@H]2C[C@@H](O)CN2C(=O)[C@@H](NC(=O)COCCOCc2cn(CCNC(=O)C[C@@H]3N=C(c4ccc(Cl)cc4)c4c(sc(C)c4C)-n4c(C)nnc43)nn2)C(C)(C)C)cc1`, for which, in [1], the 50% degradation concentration (DC50) came to 83 nM. In addition, the solubility in [2] is 38 µM (≈ 39.5 µg/mL); in [3] (0.01 N HCl) it was 343 µM (≈ 357 µg/mL); in “physchem”, 178 µM (≈ 185 µg/mL). The result in [6] was inactive. In addition, the %max in data set [5] came to 22%.

`Cc1ncsc1-c1ccc(CNC(=O)[C@H]2CN(C(=O)[C@@H](NC(=O)COCc3cn(CCNC(=O)C[C@@H]4N=C(c5ccc(Cl)cc5)c5c(sc(C)c5C)-n5c(C)nnc54)nn3)C(C)(C)C)C[C@@H]2O)cc1`: in data set [1], the DC50 was found to be 59 nM. For the same compound, the solubility in data set [3] (0.01 N HCl) is 314 µM (≈ 313 µg/mL); in “physchem” it was 90 µM (≈ 89.6 µg/mL). In addition, the %max in data set [5] was 46%.

With `Cc1sc2c(c1C)C(c1ccc(Cl)cc1)=N[C@@H](CC(=O)NCCn1cc(COCCOc3cccc4c3C(=O)N(C3CCC(=O)NC3=O)C4=O)nn1)c1nnc(C)n1-2` (stereo partly specified), the DC50 in data set [1] was above 5000 nM. The solubility in data set [2] was 111 µM (≈ 91.6 µg/mL); in data set [3] (0.01 N HCl), 242 µM (≈ 200 µg/mL); in the data set “physchem”, 247 µM (≈ 204 µg/mL).

Consider `Cc1sc2c(c1C)C(c1ccc(Cl)cc1)=N[C@@H](CC(=O)NCCn1cc(COCCOCCOCCOCCOc3cccc4c3C(=O)N(C3CCC(=O)NC3=O)C4=O)nn1)c1nnc(C)n1-2` (stereo partly specified), for which, in [1], the DC50 was 200 nM. The solubility was 158 µM (≈ 151 µg/mL) in [2], 317 µM (≈ 304 µg/mL) in [3] (0.01 N HCl) and 273 µM (≈ 261 µg/mL) in “physchem”. The Activity in [7] is above 90%. In addition, the result in data set [8], in [9] and in data set [10] was inactive.

Regarding `Cc1sc2c(c1C)C(c1ccc(Cl)cc1)=N[C@@H](CC(=O)NCCCCNC(=O)COc1cccc3c1C(=O)N(C1CCC(=O)NC1=O)C3=O)c1nnc(C)n1-2` (stereo partly specified), the solubility in data set [2] was 60 µM (≈ 47.1 µg/mL); in data set [3] (0.01 N HCl), 171 µM (≈ 134 µg/mL); in “physchem”, 97 µM (≈ 76.2 µg/mL).
